Source: patent publication US8871681B2, “Herbicidal compositions comprising 4-amino-3-chloro-5-fluoro-6-(4-chloro-2-fluoro-3-methoxyphenyl) pyridine-2-carboxylic acid or a derivative thereof and certain sulfonylureas” (Dow AgroSciences LLC, priority 2012, dated 2014)

Test system: SCPMA (Bolboschoenus maritimus or Schoenoplectus maritimus, sea clubrush)
Assay: In-water applied weed control, transplanted paddy rice, greenhouse (Example II)
Type: in vivo, Bolboschoenus maritimus (L.) Palla
Procedure, shortened: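 Transplanted rice and weeds at first to fourth true leaf stage in flooded mud pots (2.5–3 cm water), greenhouse ~29/26 °C day/night. Herbicides alone or mixed, in 1.25% crop oil concentrate (acetone for technical material), injected into the flood; visual 0–100% injury after ~3 weeks, expected mixture effects by Colby.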

## COC(=O)c1ccccc1CS(=O)(=O)NC(=O)Nc1nc(OC)cc(OC)n1 [Bensulfuron-methyl, methyl 2-[[[[[(4,6-dimethoxy-2-pyrimidinyl)amino]carbonyl]amino]sulfonyl]methyl]benzoate, reference compound]
Table 32, 17.5 gai/ha alone
  Visual Weed Control (%) - 21 DAA SCPMA Obs: 45%
Table 32, 35 gai/ha alone
  Visual Weed Control (%) - 21 DAA SCPMA Obs: 90%

## COc1c(Cl)ccc(-c2nc(C(=O)O)c(Cl)c(N)c2F)c1F [Compound A Acid, 4-amino-3-chloro-5-fluoro-6-(4-chloro-2-fluoro-3-methoxy-phenyl)pyridine-2-carboxylic acid]
Table 28, 8.75 gae/ha alone
  Visual Weed Control (%) - 20 DAA SCPMA Obs: 40%
Table 28, 17.5 gae/ha alone
  Visual Weed Control (%) - 20 DAA SCPMA Obs: 20%
Table 28, 35 gae/ha alone
  Visual Weed Control (%) - 20 DAA SCPMA Obs: 20%
Table 28, second set, 70 gae/ha alone
  Visual Weed Control (%) - 20 DAA SCPMA Obs: 0%
Table 38, 35 gae/ha alone
  Visual Weed Control (%) - 20 DAA SCPMA Obs: 0%
Table 38, 70 gae/ha alone
  Visual Weed Control (%) - 20 DAA SCPMA Obs: 0%
Table 45, 42.4 gae/ha alone
  Visual Weed Control (%) - 20 DAA SCPMA Obs: 0%
Table 45, 84.8 gae/ha alone
  Visual Weed Control (%) - 20 DAA SCPMA Obs: 0%

## COc1c(Cl)ccc(-c2nc(C(=O)OCc3ccccc3)c(Cl)c(N)c2F)c1F [Compound A Benzyl Ester]
Table 29, 4.38 gae/ha alone
  Visual Weed Control (%) - 20 DAA SCPMA Obs: 10%
Table 29, 8.75 gae/ha alone
  Visual Weed Control (%) - 20 DAA SCPMA Obs: 0%
Table 29, 17.5 gae/ha alone
  Visual Weed Control (%) - 20 DAA SCPMA Obs: 20%
Table 29, 35 gae/ha alone
  Visual Weed Control (%) - 20 DAA SCPMA Obs: 0%
Table 29, 70 gae/ha alone
  Visual Weed Control (%) - 20 DAA SCPMA Obs: 0%
Table 32, 48 gae/ha alone
  Visual Weed Control (%) - 21 DAA SCPMA Obs: 0%
Table 32, 96 gae/ha alone
  Visual Weed Control (%) - 21 DAA SCPMA Obs: 0%
Table 33, 8 gae/ha alone
  Visual Weed Control (%) - 21 DAA SCPMA Obs: 0%
Table 33, 16 gae/ha alone
  Visual Weed Control (%) - 21 DAA SCPMA Obs: 0%
Table 33, 32 gae/ha alone
  Visual Weed Control (%) - 21 DAA SCPMA Obs: 0%
Table 39, 35 gae/ha alone
  Visual Weed Control (%) - 20 DAA SCPMA Obs: 0%
Table 39, 70 gae/ha alone
  Visual Weed Control (%) - 20 DAA SCPMA Obs: 0%
Table 46, 35 gae/ha alone
  Visual Weed Control (%) - 20 DAA SCPMA Obs: 0%
Table 46, 70 gae/ha alone
  Visual Weed Control (%) - 20 DAA SCPMA Obs: 0%
Table 48, 8 gae/ha alone
  Visual Weed Control (%) - 21 DAA SCPMA Obs: 0%
Table 48, 16 gae/ha alone
  Visual Weed Control (%) - 21 DAA SCPMA Obs: 0%
Table 48, 32 gae/ha alone
  Visual Weed Control (%) - 21 DAA SCPMA Obs: 0%
